Results: ChEMBL document CHEMBL3425460, “Stereoselective synthesis of 11-phenylundeca-5Z,9Z-dienoic acid and investigation of its human topoisomerase I and IIα inhibitory activity” (Bioorg Med Chem Lett, 2015)
Active and inactive are the calls of the source. The rule behind the calls is not given here.

Columns and labels:
DNA topoisomerase 1 = target: T1, DNA topoisomerase 1 (Homo sapiens, UniProt P11387); test: Inhibition of human topoisomerase 1-mediated DNA cleavage assessed as accumulation of nicked DNA by ethidium bromide staining based electrophoregram
T1 sequence (P11387 whole entry): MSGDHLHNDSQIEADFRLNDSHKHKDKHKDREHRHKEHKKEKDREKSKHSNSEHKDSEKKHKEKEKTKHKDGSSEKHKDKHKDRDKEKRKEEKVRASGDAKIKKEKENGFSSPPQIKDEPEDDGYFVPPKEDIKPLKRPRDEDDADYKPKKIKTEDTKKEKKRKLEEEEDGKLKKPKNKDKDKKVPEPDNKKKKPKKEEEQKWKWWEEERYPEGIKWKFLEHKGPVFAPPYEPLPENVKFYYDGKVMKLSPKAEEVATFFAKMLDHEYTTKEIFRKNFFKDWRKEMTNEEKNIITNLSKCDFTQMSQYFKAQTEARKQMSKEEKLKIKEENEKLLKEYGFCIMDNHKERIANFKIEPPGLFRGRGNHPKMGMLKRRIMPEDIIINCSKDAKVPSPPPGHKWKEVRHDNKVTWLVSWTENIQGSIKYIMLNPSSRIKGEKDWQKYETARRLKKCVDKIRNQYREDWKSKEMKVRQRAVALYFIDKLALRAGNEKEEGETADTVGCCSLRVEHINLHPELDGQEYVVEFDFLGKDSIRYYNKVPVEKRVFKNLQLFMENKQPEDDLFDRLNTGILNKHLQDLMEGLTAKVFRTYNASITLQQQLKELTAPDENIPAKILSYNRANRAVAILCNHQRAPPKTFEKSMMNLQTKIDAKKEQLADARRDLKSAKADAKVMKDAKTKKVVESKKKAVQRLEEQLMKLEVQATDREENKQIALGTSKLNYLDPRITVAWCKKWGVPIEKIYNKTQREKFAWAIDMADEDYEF

[1] = Induction of pHOT1 DNA (unknown origin) cleavage assessed as conversion of supercoiled DNA to linear and nicked form of DNA at 5 to 500 uM after 30 mins by gel electrophoretic mobility assay
[2] = target: DNA topoisomerase 2-alpha (Homo sapiens) (UniProt P11388); test: Inhibition of human topoisomerase 2 alpha-mediated DNA cleavage assessed as accumulation of nicked DNA at 0.06 to 10 uM by electrophoregram
Chain of DNA topoisomerase 2-alpha (Homo sapiens) (P11388 whole entry): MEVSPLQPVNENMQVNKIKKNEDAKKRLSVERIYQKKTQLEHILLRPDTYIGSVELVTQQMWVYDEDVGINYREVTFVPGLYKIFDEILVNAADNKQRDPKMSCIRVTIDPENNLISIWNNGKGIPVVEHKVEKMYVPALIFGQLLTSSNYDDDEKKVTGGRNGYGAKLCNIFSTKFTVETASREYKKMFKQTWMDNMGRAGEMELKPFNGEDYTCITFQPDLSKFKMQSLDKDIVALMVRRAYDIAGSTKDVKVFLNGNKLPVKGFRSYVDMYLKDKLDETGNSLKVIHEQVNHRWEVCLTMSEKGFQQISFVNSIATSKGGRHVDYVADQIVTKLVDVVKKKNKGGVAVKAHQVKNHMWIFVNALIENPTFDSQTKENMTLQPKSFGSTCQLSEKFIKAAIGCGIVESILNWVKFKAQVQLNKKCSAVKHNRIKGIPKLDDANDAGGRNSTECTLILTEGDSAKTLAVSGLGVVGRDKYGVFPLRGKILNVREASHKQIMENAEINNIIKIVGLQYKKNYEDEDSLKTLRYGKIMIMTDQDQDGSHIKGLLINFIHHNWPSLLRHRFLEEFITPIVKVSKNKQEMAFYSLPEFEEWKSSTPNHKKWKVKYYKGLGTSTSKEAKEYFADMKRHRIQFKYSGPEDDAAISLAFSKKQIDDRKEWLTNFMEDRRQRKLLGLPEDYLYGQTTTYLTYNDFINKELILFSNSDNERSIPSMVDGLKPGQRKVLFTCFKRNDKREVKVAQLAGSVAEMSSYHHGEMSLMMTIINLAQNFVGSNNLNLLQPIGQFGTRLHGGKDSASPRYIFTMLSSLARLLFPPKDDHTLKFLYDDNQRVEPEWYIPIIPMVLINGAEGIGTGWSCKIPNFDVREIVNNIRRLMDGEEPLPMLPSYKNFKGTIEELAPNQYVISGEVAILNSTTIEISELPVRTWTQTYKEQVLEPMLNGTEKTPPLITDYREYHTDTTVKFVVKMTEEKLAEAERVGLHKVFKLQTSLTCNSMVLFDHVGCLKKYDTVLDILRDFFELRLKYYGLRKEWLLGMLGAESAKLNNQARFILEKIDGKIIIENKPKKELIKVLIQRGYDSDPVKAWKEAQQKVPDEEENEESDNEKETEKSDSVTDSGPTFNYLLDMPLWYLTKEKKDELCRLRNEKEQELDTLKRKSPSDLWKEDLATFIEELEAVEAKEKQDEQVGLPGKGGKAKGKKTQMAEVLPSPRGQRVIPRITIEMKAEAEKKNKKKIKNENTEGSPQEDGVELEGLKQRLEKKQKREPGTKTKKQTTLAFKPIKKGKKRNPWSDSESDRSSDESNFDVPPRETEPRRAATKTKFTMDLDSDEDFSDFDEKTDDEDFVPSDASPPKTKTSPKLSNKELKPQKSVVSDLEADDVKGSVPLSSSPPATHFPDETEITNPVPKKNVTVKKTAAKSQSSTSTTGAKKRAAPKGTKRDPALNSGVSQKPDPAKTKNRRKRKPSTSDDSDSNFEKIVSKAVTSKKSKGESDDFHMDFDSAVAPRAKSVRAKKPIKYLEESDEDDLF

[3] = target: DNA topoisomerase 2-alpha (Homo sapiens) (UniProt P11388); test: Inhibition of human topoisomerase 2 alpha-mediated DNA cleavage assessed as accumulation of nicked DNA at 0.06 to 10 uM by ethidium bromide staining based electrophoregram
[4] = target: DNA topoisomerase 2-alpha (Homo sapiens) (UniProt P11388); test: Inhibition of human topoisomerase 2 alpha-mediated DNA cleavage assessed as linear form of plasmid by electrophoregram
[5] = target: T2, DNA topoisomerase 1 (Homo sapiens) (UniProt P11387); details: 0.06 to 10 uM
T2 sequence (whole entry): T1 sequence (P11387 whole entry)
Description: Inhibition of human topoisomerase 1-mediated DNA cleavage assessed as accumulation of nicked DNA at 0.06 to 10 uM by ethidium bromide staining based electrophoregram

| SMILES | IC50 (DNA topoisomerase 1) [nM] | Activity [1] | inhibition [2] | inhibition [3] | inhibition [4] | inhibition [5] |
| --- | --- | --- | --- | --- | --- | --- |
| CCCCCCCCCC/C=C\CC/C=C\CCCC(=O)O | 810 |  |  |  |  |  |
| O=C(O)CCC/C=C\CC/C=C\Cc1ccccc1 | 670 | Active | Active | Active | Dose-dependent effect | Active |
